Laboratory results published in US8669206B2, “Composition and method for controlling arthropod pests” (Sumitomo Chemical Company, Limited, priority 2009, dated 2014).

Experiments:
Type in all cases: in vivo
[1] = system: Pseudaletia separata; test: Test Example 3: control of Pseudaletia separata larvae on rice seedlings treated with chemical solution and air dried; conditions: single compound, 20 mL/cup, larvae released after air drying, counted after 3 days
Procedure: (§1) Control rate=100×(1−[(Ts/30)/(Cs/30)]) “Equation A” Ts and Cs represent the number of surviving larvae in a treated group and that in a non-treated group, respectively. Provided that, when the control rate is less than 0 (Ts>Cs), it is indicated by 0.
(§2) The compound I was dissolved in water to prepare an aqueous solution having a prescribed concentration. Also, the compound (3) was dissolved in a mixed solution (44:1) of acetone and Tween 20, followed by dilution with water to prepare a chemical solution. These solutions were appropriately mixed to prepare a test mixed chemical solution having a prescribed concentration of the compound I and the compound (3).
A 90 mL plastic cup, was filled with cultivation soil and 15 rice seeds were sown.
Two weeks after seedlings emerged, the rice seedlings were treated with the test mixed chemical solution (20 mL/plastic cup). After air dying, 30 of first-instar larvae of Pseudaletia separata were released per plastic cup. After 3 days, the number of surviving larvae was counted and the control rate was calculated using the equation A in the same manner as in Test Example 1 and Test Example 2.
(§3) For comparison, tests were conducted in the same manner using a test aqueous solution having a prescribed concentration of the compound I, prepared by diluting an aqueous solution of the compound I with water, and a test chemical solution having a prescribed concentration of the compound (3), prepared by dissolving the compound (3) in a mixed solution (1:9) of acetone and Tween 20, followed by dilution with water.

[2] = system: Pseudaletia separata; test: Test Example 1: control of Pseudaletia separata larvae on rice seedlings, treatment at the foot of the seedlings; conditions: single compound, 5 mL/cup, larvae released after 2 days, counted after 3 days
Procedure: The compound I was dissolved in water to prepare an aqueous solution having a prescribed concentration. Also, the compound (1) (Coragen (registered trademark), product of DuPont) was diluted with water to prepare a chemical solution of the compound. These solutions were appropriately mixed to prepare a test mixed chemical solution having a prescribed concentration of the compound I and the compound (1).
(§4) A 90 mL plastic cup was filled with cultivation soil and 15 rice seeds were sown.
Two weeks after seedlings emerged, the foot of rice seedlings were treated with the test mixed chemical solution (5 mL/plastic cup). After 2 days, 30 of first-instar larvae of Pseudaletia separata were released per plastic cup. After 3 days, the number of surviving larvae was counted and the control rate was calculated using the equation A.
as §3, with “aqueous” for “chemical”, “(1),” for “(3),”, “diluting an aqueous solution of” for “dissolving”, “(1)” for “(3) in a mixed solution (1:9) of acetone and Tween 20, followed by dilution”
as §1

[3] = system: Pseudaletia separata; test: Test Example 2: control of Pseudaletia separata larvae on rice seedlings, treatment at the foot of the seedlings; conditions: single compound, 5 mL/cup, larvae released after 2 days, counted after 3 days
Procedure: as §1
as §2, with “(2)” for “(3)”, “(2).” for “(3).”
as §4
Two weeks after seedlings emerged, the foot of rice seedlings were treated with the test mixed chemical solution (5 mL/plastic cup). After 2 days, 30 of first-instar larvae of Pseudaletia separata were released per plastic cup. After 3 days, the number of surviving larvae was counted and the control rate was calculated using the equation A in the same manner as in Test Example 1.
as §3, with “(2),” for “(3),”, “(2)” for “(3)”

O=C(O)CCC(=O)NCCc1ccccc1 [Compound I, 4-oxo-4-[(2-phenylethyl)amino]-butyric acid]
Control rate (%) ([1]; 10 ppm): 0%
Control rate (%) ([1]; 30 ppm): 0%
Control rate (%) ([1]; 100 ppm): 0%
Control rate (%) ([2]; 10 ppm): 0%
Control rate (%) ([2]; 30 ppm): 0%
Control rate (%) ([2]; 100 ppm): 0%
Control rate (%) ([3]; 30 ppm): 0%
Control rate (%) ([3]; 100 ppm): 0%

CC(NC(=O)c1cc(Cl)cc(Br)c1NC(=O)c1cc(Br)nn1-c1ncccc1Cl)C1CC1 (stereo not drawn) [Compound (3), N-[2-bromo-4-chloro-6-[[α-methyl-(cyclopropylmethyl)amino]carbonyl]-phenyl]-3-bromo-1-(3-chloro-2-pyridinyl)-1H-pyrazole-5-carboxamide]
Control rate (%) ([1]; 0.3 ppm): 58%

CNC(=O)c1cc(Cl)cc(C)c1NC(=O)c1cc(Br)nn1-c1ncccc1Cl [Compound (1), chlorantraniliprole, reference compound]
Control rate (%) ([2]; 1.0 ppm): 78%
Control rate (%) ([2]; 3.0 ppm): 87%

CNC(=O)c1cc(C#N)cc(C)c1NC(=O)c1cc(Br)nn1-c1ncccc1Cl [Compound (2), cyantraniliprole, reference compound]
Control rate (%) ([3]; 1.0 ppm): 59%
